Experimental data as given in PubChem BioAssay (NCI).
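Following 48 hours of exposure in 96-well plates, responses at five concentrations were used to interpolate endpoints linearly. Definition used: TGI = concentration required for complete inhibition of growth.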

How the values were obtained:
Experiment in all cases: NCI-60 cell line screen, 48 h
UO-31 renal = tested on: UO-31 renal
786-0 renal = tested on: 786-0 renal
OVCAR-4 ovarian = tested on: OVCAR-4 ovarian
HOP-18 NSCLC = tested on: HOP-18 NSCLC
UACC-257 melanoma = tested on: UACC-257 melanoma
OVCAR-5 ovarian = tested on: OVCAR-5 ovarian
SNB-75 CNS = tested on: SNB-75 CNS
HCC-2998 colon = tested on: HCC-2998 colon
ACHN renal = tested on: ACHN renal
A549 NSCLC = tested on: A549 NSCLC
MOLT-4 leukemia = tested on: MOLT-4 leukemia
HT29 colon = tested on: HT29 colon
SF-539 CNS = tested on: SF-539 CNS
HOP-92 NSCLC = tested on: HOP-92 NSCLC
CCRF-CEM leukemia = tested on: CCRF-CEM leukemia
NCI-H23 lung = tested on: NCI-H23 lung
HCT-116 colon = tested on: HCT-116 colon
UACC-62 melanoma = tested on: UACC-62 melanoma
DLD-1 colon = tested on: DLD-1 colon
SK-OV-3 ovarian = tested on: SK-OV-3 ovarian
CAKI-1 renal = tested on: CAKI-1 renal
HL-60(TB) leukemia = tested on: HL-60(TB) leukemia
XF 498 CNS = tested on: XF 498 CNS
SK-MEL-28 melanoma = tested on: SK-MEL-28 melanoma
RPMI-8226 leukemia = tested on: RPMI-8226 leukemia
SNB-78 CNS = tested on: SNB-78 CNS
A498 renal = tested on: A498 renal
HCT-15 colon = tested on: HCT-15 colon
SNB-19 CNS = tested on: SNB-19 CNS
LOX IMVI melanoma = tested on: LOX IMVI melanoma
IGROV1 ovarian = tested on: IGROV1 ovarian
SF-295 CNS = tested on: SF-295 CNS
K-562 leukemia = tested on: K-562 leukemia
OVCAR-3 ovarian = tested on: OVCAR-3 ovarian
OVCAR-8 ovarian = tested on: OVCAR-8 ovarian
SF-268 CNS = tested on: SF-268 CNS
TK-10 renal = tested on: TK-10 renal
DMS 114 small cell lung = tested on: DMS 114 small cell lung
KM12 colon = tested on: KM12 colon
NCI-H460 lung = tested on: NCI-H460 lung
HOP-62 NSCLC = tested on: HOP-62 NSCLC
SW-620 colon = tested on: SW-620 colon
EKVX NSCLC = tested on: EKVX NSCLC
COLO 205 colon = tested on: COLO 205 colon
SK-MEL-2 melanoma = tested on: SK-MEL-2 melanoma
NCI-H226 lung = tested on: NCI-H226 lung
MALME-3M melanoma = tested on: MALME-3M melanoma
SK-MEL-5 melanoma = tested on: SK-MEL-5 melanoma
M14 melanoma = tested on: M14 melanoma
RXF 393 renal = tested on: RXF 393 renal
LXFL 529 NSCLC = tested on: LXFL 529 NSCLC
KM20L2 colon = tested on: KM20L2 colon
M19-MEL melanoma = tested on: M19-MEL melanoma
SN12C renal = tested on: SN12C renal
U251 CNS = tested on: U251 CNS
DMS 273 small cell lung = tested on: DMS 273 small cell lung

## CC(=O)OC1CC2C(C)(C)C(=O)C=C[C@]2(C)C2CCC3(C)C(=CC(=O)C3c3ccoc3)[C@]12C (some centres not stated)
UO-31 renal
  TGI: 33 µM
786-0 renal
  TGI: 31.1 µM
OVCAR-4 ovarian
  TGI: 50.5 µM
HOP-18 NSCLC
  TGI: 33.8 µM
UACC-257 melanoma
  TGI: 48.2 µM
OVCAR-5 ovarian
  TGI: 37.8 µM
SNB-75 CNS
  TGI: 36.1 µM
HCC-2998 colon
  TGI: 26 µM
ACHN renal
  TGI: 40.1 µM
A549 NSCLC
  TGI: 41 µM
MOLT-4 leukemia
  TGI: 34 µM
HT29 colon
  TGI: 32.1 µM
SF-539 CNS
  TGI: 31.2 µM
HOP-92 NSCLC
  TGI: 45.6 µM
CCRF-CEM leukemia
  TGI: 30 µM
NCI-H23 lung
  TGI: 29.5 µM
HCT-116 colon
  TGI: 24.9 µM
UACC-62 melanoma
  TGI: 31.6 µM
DLD-1 colon
  TGI: 31 µM
SK-OV-3 ovarian
  TGI: 35.6 µM
CAKI-1 renal
  TGI: > 100 µM
HL-60(TB) leukemia
  TGI: 34.1 µM
XF 498 CNS
  TGI: 42.8 µM
SK-MEL-28 melanoma
  TGI: 32.6 µM
RPMI-8226 leukemia
  TGI: 36.1 µM
SNB-78 CNS
  TGI: > 100 µM
A498 renal
  TGI: 33.9 µM
HCT-15 colon
  TGI: 26.1 µM
SNB-19 CNS
  TGI: 29.2 µM
LOX IMVI melanoma
  TGI: 31.4 µM
IGROV1 ovarian
  TGI: 57.9 µM
SF-295 CNS
  TGI: 28.7 µM
K-562 leukemia
  TGI: > 100 µM
OVCAR-3 ovarian
  TGI: 25.8 µM
OVCAR-8 ovarian
  TGI: 41 µM
SF-268 CNS
  TGI: 33.1 µM
TK-10 renal
  TGI: 30 µM
DMS 114 small cell lung
  TGI: 27.6 µM
KM12 colon
  TGI: 35.5 µM
NCI-H460 lung
  TGI: 34.1 µM
HOP-62 NSCLC
  TGI: 31.1 µM
SW-620 colon
  TGI: 26 µM
EKVX NSCLC
  TGI: 37.7 µM
COLO 205 colon
  TGI: 34.6 µM
SK-MEL-2 melanoma
  TGI: 34.5 µM
NCI-H226 lung
  TGI: 35.6 µM
MALME-3M melanoma
  TGI: 34.4 µM
SK-MEL-5 melanoma
  TGI: 26.4 µM
M14 melanoma
  TGI: 61.7 µM
RXF 393 renal
  TGI: 10.1 µM
LXFL 529 NSCLC
  TGI: 74.2 µM
KM20L2 colon
  TGI: 28.2 µM
M19-MEL melanoma
  TGI: 33.5 µM
SN12C renal
  TGI: 32.5 µM

## CC(C)(C)C1CCC2c3c([nH]c4ccccc34)C3C(=O)N(c4ccccc4)C(=O)C3C2C1 (configuration not stated)
U251 CNS
  TGI: 11 µM
UO-31 renal
  TGI: 8.48 µM
786-0 renal
  TGI: 26 µM
OVCAR-4 ovarian
  TGI: 5.36 µM
HOP-18 NSCLC
  TGI: 9.73 µM
OVCAR-5 ovarian
  TGI: > 100 µM
SNB-75 CNS
  TGI: 6.04 µM
HCC-2998 colon
  TGI: 53.5 µM
ACHN renal
  TGI: 26.2 µM
A549 NSCLC
  TGI: 46 µM
MOLT-4 leukemia
  TGI: 14 µM
HT29 colon
  TGI: > 100 µM
SF-539 CNS
  TGI: 23.5 µM
CCRF-CEM leukemia
  TGI: 11 µM
NCI-H23 lung
  TGI: 40.1 µM
UACC-62 melanoma
  TGI: 56.7 µM
DLD-1 colon
  TGI: > 100 µM
SK-OV-3 ovarian
  TGI: 5.18 µM
HL-60(TB) leukemia
  TGI: 30.6 µM
XF 498 CNS
  TGI: 3 µM
SK-MEL-28 melanoma
  TGI: 18.8 µM
RPMI-8226 leukemia
  TGI: 28.4 µM
SNB-78 CNS
  TGI: 19 µM
A498 renal
  TGI: 5.99 µM
HCT-15 colon
  TGI: > 100 µM
SNB-19 CNS
  TGI: 22.5 µM
LOX IMVI melanoma
  TGI: 15.3 µM
IGROV1 ovarian
  TGI: 39.4 µM
SF-295 CNS
  TGI: 16.4 µM
K-562 leukemia
  TGI: 15.8 µM
OVCAR-3 ovarian
  TGI: 19.1 µM
OVCAR-8 ovarian
  TGI: 17.8 µM
SF-268 CNS
  TGI: 52.5 µM
TK-10 renal
  TGI: 12.5 µM
DMS 114 small cell lung
  TGI: 20.7 µM
KM12 colon
  TGI: > 100 µM
NCI-H460 lung
  TGI: 12.5 µM
DMS 273 small cell lung
  TGI: 15 µM
SW-620 colon
  TGI: 41 µM
EKVX NSCLC
  TGI: 55.3 µM
COLO 205 colon
  TGI: 17.8 µM
NCI-H226 lung
  TGI: 21.6 µM
MALME-3M melanoma
  TGI: 7.31 µM
M14 melanoma
  TGI: 19.7 µM
RXF 393 renal
  TGI: 14.4 µM
LXFL 529 NSCLC
  TGI: 32.3 µM
M19-MEL melanoma
  TGI: 23.7 µM
SN12C renal
  TGI: 17.4 µM
